Reference: patent US11510886B2, “Metformin amino acid compounds and methods of using the same” (Laboratorios Silancs S.A. DE C.V., priority 2016, dated 2022)

Test system: L1 adipocytes
Test: Inflammation markers in L1 adipocytes treated with palmitate (RT-qPCR)
Type: cell-based, Mice
Details: palmitate 500 μM, 10 mM, 24 hours (FIG. 79)
Experimental: FIG. 79. […] Differentiated L1 adipocytes (cells) were treated for 24 hours with palmitate (500 μM), either in the presence or in the absence of SLN1 or SLN10 (10 mM). Subsequently, the relative expression of inflammation markers was analyzed by RT and qPCR, using HPRT-1 as a normalizer and as a reference for expression levels of non-treated cells (MCP-1 and IL-12), and for those treated only with palmitate (proIL-1β, TNFα, iNOS, IL-6). Briefly, once finished, culture media treatments were collected for subsequent analysis, cells were washed with PBS, and RNA was extracted (illustra RNAspin Mini, GE Healthcare) and retro-transcribed (High Capacity cDNA Reverse Transcription Kit, Life Technologies); then, the genes under study were analyzed by using a quantitative PCR with specific probes (TaqMan® Gene Expression Assays, Life Technologies), estimating the relative quantification (RQ) with the ΔΔ Ct method.
Palmitate is a saturated fatty acid that simulates an experimental obese state. It can be used as a pro-inflammatory stimulant for cytokines such as proIL-1β, TNFα, INOS, IL-6, MCP-1, and IL-12. Adipocytes cultured in the absence or presence of palmitate were treated with SLN1 or SLN10, and the expression of inflammation markers was determined by quantitative RT-PCR (FIG. 79).

In the case of metformin lysinate, the “attenuation of inflammatory response of adipocytes stimulated with palmitate” value is reported as “much more effective”.
